Laboratory results from patent US5840684A, “Glycopeptide antibiotic derivatives” (Eli Lilly and Company, priority 1995, dated 1998).
Values after ≈ are worked out from the molar mass of the structure shown.

Key:
[1] = test system: Staphylococcus aureus S13E; type: cell-based
Method: (§1) The MIC's were determined using a standard broth micro-dilution assay.

[2] = test system: Entercoccus faecium 180-1; assay: broth micro-dilution MIC; type: cell-based
Method: as §1

[3] = test system: Entercoccus faecium 276; assay: broth micro-dilution MIC; type: cell-based
Method: as §1

[4] = test system: Staphylococcus aureus 446; assay: broth micro-dilution MIC; type: cell-based
Method: as §1

[5] = test system: Staphylococcus aureus 447; assay: broth micro-dilution MIC; type: cell-based
Method: as §1

[6] = test system: Staphylococcus aureus 489; assay: broth micro-dilution MIC; type: cell-based
Method: as §1

[7] = test system: Staphylococcus aureus SA1199A; assay: broth micro-dilution MIC; type: cell-based
Method: as §1

[8] = test system: Staphylococcus aureus SA1199; assay: broth micro-dilution MIC; type: cell-based
Method: as §1

[9] = test system: Staphylococcus aureus X400; assay: broth micro-dilution MIC; type: cell-based
Method: as §1

[10] = test system: Staphylococcus aureus X778; assay: broth micro-dilution MIC; type: cell-based
Method: as §1

[11] = test system: Haemophilus influenzae RD; assay: broth micro-dilution MIC; type: cell-based; conditions: Haemophilus influenzae RD
Method: (§2) The formula I compounds have in vitro and in vivo activity against Gram-positive pathogenic bacteria. The MIC's were determined using a standard broth micro-dilution assay.

[12] = test system: Staphylococcus epidermidis 270; assay: broth micro-dilution MIC; type: cell-based
Method: as §2

[13] = test system: Staphylococcus haemolyticus 105; assay: broth micro-dilution MIC; type: cell-based
Method: as §2

[14] = test system: Staphylococcus haemolyticus 415; assay: broth micro-dilution MIC; type: cell-based
Method: as §2

[15] = test system: Stapylococcus aureus; assay: mouse protection, experimentally-induced infection; type: in vivo; conditions: mice infected with Stapylococcus aureus, two doses
[16] = test system: Streptococcus pyogenes; assay: mouse protection, experimentally-induced infection; type: in vivo; conditions: mice infected with Streptococcus pyogenes, two doses
[17] = test system: Streptococcus pneumoniae; assay: mouse protection, experimentally-induced infection; type: in vivo; conditions: mice infected with Streptococcus pneumoniae, two doses
[18] = test system: vancomycin-resistant enterococci; assay: broth micro-dilution, mean geometric MIC; type: cell-based, Enterococcus faecium and Enterococcus faecalis; conditions: enterococci, 24-hour incubation
[19] = test system: vancomycin-susceptible enterococci; assay: broth micro-dilution, mean geometric MIC; type: cell-based, Enterococcus faecium and Enterococcus faecalis; conditions: enterococci, 24-hour incubation
[20] = test system: Pediococcus acidilacti; assay: agar dilution MIC, lactic acid bacteria; type: cell-based; conditions: Pediococcus acidilacti (mean of 10), brain-heart infusion agar
[21] = test system: Pediococcus pentosaceus; assay: agar dilution MIC, lactic acid bacteria; type: cell-based; conditions: Pediococcus pentosaceus (mean of 2), brain-heart infusion agar
[22] = test system: Leuconostoc lactis; assay: agar dilution MIC, lactic acid bacteria; type: cell-based; conditions: Leuconostoc lactis (mean of 2), brain-heart infusion agar
[23] = test system: Leuconostoc mesenteroides; assay: agar dilution MIC, lactic acid bacteria; type: cell-based; conditions: Leuconostoc mesenteroides (mean of 4), brain-heart infusion agar
[24] = test system: Leuconostoc citreum; assay: agar dilution MIC, lactic acid bacteria; type: cell-based; conditions: brain-heart infusion agar
[25] = test system: Lactobacillus confusus; assay: agar dilution MIC, lactic acid bacteria; type: cell-based; conditions: Lactobacillus confusus, brain-heart infusion agar
[26] = test system: Leuconostoc pseudomesenteroides; assay: agar dilution MIC, lactic acid bacteria; type: cell-based; conditions: brain-heart infusion agar
[27] = test system: Staphylococcus aureus SA1199B; type: cell-based
Method: as §1

[28] = test system: Entercoccus faecium 180; assay: broth micro-dilution MIC; type: cell-based; conditions: Entercoccus faecium 180
Method: as §2

[29] = test system: Streptococcus pyogenes C203; assay: broth micro-dilution MIC; type: cell-based
Method: as §1

[30] = test system: Entercoccus faecium 2041; assay: broth micro-dilution MIC; type: cell-based; conditions: Entercoccus faecium 2041
Method: as §2

[31] = test system: Enterococcus gallinarum 245; assay: broth micro-dilution MIC; type: cell-based; conditions: Enterococcus gallinarum 245
Method: as §2

[32] = test system: Streptococcus pneumoniae P1; assay: broth micro-dilution MIC; type: cell-based
Method: as §2

[33] = test system: Escherichia coli EC14; assay: broth micro-dilution MIC; type: cell-based
Method: as §2

[34] = test system: Staphylococcus aureus 491; assay: broth micro-dilution MIC; type: cell-based
Method: as §1

Compound	MIC [1] [µg/mL]	MIC [2] [µg/mL]	MIC [3] [µg/mL]	MIC [4] [µg/mL]	MIC [7]	MIC [8] [µg/mL]	MIC [9] [µg/mL]	MIC [10] [µg/mL]	MIC [13] [µg/mL]	MIC [14] [µg/mL]	ED50 [16] [mg/kg/2]	ED50 [17] [mg/kg/2]	mean geometric MIC, Vancomycin Resistant Strains [18] [µg/mL]	mean geometric MIC, Vancomycin Sensitive Strains [19] [µg/mL]	MIC [20] [µg/mL]	MIC [21] [µg/mL]	MIC [22] [µg/mL]	MIC [23] [µg/mL]	MIC [25] [µg/mL]	MIC [26] [µg/mL]	other results
CNC(CC(C)C)C(=O)NC1C(=O)NC(CC(N)=O)C(=O)NC2C(=O)NC3C(=O)NC(C(=O)NC(C(=O)O)c4cc(O)cc(O)c4-c4cc3ccc4O)C(OC3CC(C)(N)C(O)C(C)O3)c3ccc(c(Cl)c3)Oc3cc2cc(c3OC2OC(CO)C(O)C(O)C2OC2CC(C)(NCc3ccc4c(c3)Cc3ccccc3-4)C(O)C(C)O2)Oc2ccc(cc2Cl)C1O (stereo not shown) [Compound 32]	1 (≈ 0.565 µM)	≤ 0.06	0.125 (≈ 0.0706 µM)	1 (≈ 0.565 µM)	≤ 0.06 µg/mL	1 (≈ 0.565 µM)	0.5 (≈ 0.282 µM)	0.5 (≈ 0.282 µM)	4 (≈ 2.26 µM)	4 (≈ 2.26 µM)	0.034	0.039	0.50	0.089	12.1 (≈ 6.83 µM)	16 (≈ 9.04 µM)	16 (≈ 9.04 µM)	16 (≈ 9.04 µM)	16 (≈ 9.04 µM)	–	MIC [5]: 0.5 µg/mL (≈ 0.282 µM); MIC [6]: 1 µg/mL (≈ 0.565 µM); MIC [11]: > 64 µg/mL; MIC [12]: 1 µg/mL (≈ 0.565 µM); ED50 [15]: 0.055 mg/kg/2; MIC [24]: 64 µg/mL (≈ 36.1 µM)
CNC(CC(C)C)C(=O)NC1C(=O)NC(CC(N)=O)C(=O)NC2C(=O)NC3C(=O)NC(C(=O)NC(C(=O)O)c4cc(O)cc(O)c4-c4cc3ccc4O)C(OC3CC(C)(N)C(O)C(C)O3)c3ccc(c(Cl)c3)Oc3cc2cc(c3OC2OC(CO)C(O)C(O)C2OC2CC(C)(NCc3ccc(SC)cc3)C(O)C(C)O2)Oc2ccc(cc2Cl)C1O (stereo not shown) [Compound 41]	–	–	–	–	–	–	–	–	–	–	0.082	0.087	0.84	0.21	71 (≈ 41.1 µM)	91 (≈ 52.6 µM)	91 (≈ 52.6 µM)	91 (≈ 52.6 µM)	64 (≈ 37 µM)	> 128	MIC [24]: > 128 µg/mL
CN[C@H](CC(C)C)C(=O)N[C@H]1C(=O)N[C@@H](CC(N)=O)C(=O)N[C@H]2C(=O)N[C@H]3C(=O)N[C@H](C(=O)N[C@H](C(=O)O)c4cc(O)cc(O)c4-c4cc3ccc4O)[C@H](O[C@H]3C[C@](C)(N)[C@@H](O)[C@H](C)O3)c3ccc(c(Cl)c3)Oc3cc2cc(c3O[C@@H]2O[C@H](CO)[C@@H](O)[C@H](O)[C@H]2O[C@H]2C[C@](C)(N)[C@@H](O)[C@H](C)O2)Oc2ccc(cc2Cl)[C@H]1O [Compound A82846B, A82846B, reference compound]	0.125 (≈ 0.0785 µM)	0.125 (≈ 0.0785 µM)	0.125 (≈ 0.0785 µM)	–	≤ .06 µg/mL	0.125 (≈ 0.0785 µM)	0.125 (≈ 0.0785 µM)	0.125 (≈ 0.0785 µM)	1 (≈ 0.628 µM)	4 (≈ 2.51 µM)	0.12	0.18	29	0.22	141 (≈ 88.5 µM)	> 256	–	> 256	> 256	> 256	MIC [27]: 0.125 µg/mL (≈ 0.0785 µM); MIC [6]: ≤ .06 µg/mL; MIC [28]: 8 µg/mL (≈ 5.02 µM); ED50 [15]: 0.25 mg/kg/2; MIC [24]: > 256 µg/mL
CNC(CC(C)C)C(=O)NC1C(=O)NC(CC(N)=O)C(=O)NC2C(=O)NC3C(=O)NC(C(=O)NC(C(=O)O)c4cc(O)cc(O)c4-c4cc3ccc4O)C(OC3CC(C)(N)C(O)C(C)O3)c3ccc(c(Cl)c3)Oc3cc2cc(c3OC2OC(CO)C(O)C(O)C2OC2CC(C)(NCc3ccc(OC(F)(F)F)cc3)C(O)C(C)O2)Oc2ccc(cc2Cl)C1O (stereo not shown) [Compound 6]	–	≤ 0.06	≤ 0.06	0.5 (≈ 0.283 µM)	≤ 0.06 µg/mL	–	–	–	0.5 (≈ 0.283 µM)	0.5 (≈ 0.283 µM)	0.013	0.021	1.2	0.14	4.3 (≈ 2.43 µM)	8.0 (≈ 4.53 µM)	8.0 (≈ 4.53 µM)	9.5 (≈ 5.38 µM)	16 (≈ 9.06 µM)	16 (≈ 9.06 µM)	MIC [5]: 0.5 µg/mL (≈ 0.283 µM); MIC [29]: ≤ 0.06 µg/mL; MIC [30]: ≤ 0.06 µg/mL; MIC [31]: ≤ 0.06 µg/mL; MIC [32]: ≤ 0.06 µg/mL; ED50 [15]: 0.15 mg/kg/2
CNC(CC(C)C)C(=O)NC1C(=O)NC(CC(N)=O)C(=O)NC2C(=O)NC3C(=O)NC(C(=O)NC(C(=O)O)c4cc(O)cc(O)c4-c4cc3ccc4O)C(OC3CC(C)(N)C(O)C(C)O3)c3ccc(c(Cl)c3)Oc3cc2cc(c3OC2OC(CO)C(O)C(O)C2OC2CC(C)(NCc3ccc(OC4CCCCC4)cc3)C(O)C(C)O2)Oc2ccc(cc2Cl)C1O (stereo not shown) [Compound 124]	≤ 0.06	≤ 0.06	≤ 0.06	4 (≈ 2.25 µM)	≤ 0.06 µg/mL	1 (≈ 0.562 µM)	1 (≈ 0.562 µM)	0.5 (≈ 0.281 µM)	2 (≈ 1.12 µM)	1 (≈ 0.562 µM)	0.092	0.041	0.84	0.047	20 (≈ 11.2 µM)	16 (≈ 8.99 µM)	16 (≈ 8.99 µM)	16 (≈ 8.99 µM)	16 (≈ 8.99 µM)	64 (≈ 35.9 µM)	MIC [27]: ≤ 0.06 µg/mL; MIC [29]: ≤ 0.06 µg/mL; MIC [28]: ≤ 0.06 µg/mL; MIC [30]: ≤ 0.06 µg/mL; MIC [31]: 1 µg/mL (≈ 0.562 µM); MIC [33]: > 64 µg/mL; MIC [11]: 16 µg/mL (≈ 8.99 µM); MIC [32]: ≤ 0.06 µg/mL; MIC [24]: 64 µg/mL (≈ 35.9 µM)
CNC(CC(C)C)C(=O)NC1C(=O)NC(CC(N)=O)C(=O)NC2C(=O)NC3C(=O)NC(C(=O)NC(C(=O)O)c4cc(O)cc(O)c4-c4cc3ccc4O)C(OC3CC(C)(N)C(O)C(C)O3)c3ccc(c(Cl)c3)Oc3cc2cc(c3OC2OC(CO)C(O)C(O)C2OC2CC(C)(NCc3ccc(-c4ccccc4)cc3)C(O)C(C)O2)Oc2ccc(cc2Cl)C1O (stereo not shown) [Compound 2, p-phenylbenzyl·A82846B]	≤ 0.06	≤ 0.06	0.5 (≈ 0.284 µM)	≤ 0.06	≤ 0.06 µg/mL	0.5 (≈ 0.284 µM)	1 (≈ 0.569 µM)	≤ 0.06	2 (≈ 1.14 µM)	1 (≈ 0.569 µM)	0.014	0.025	0.044	0.00038	5.9 (≈ 3.35 µM)	11 (≈ 6.25 µM)	4.0 (≈ 2.27 µM)	16 (≈ 9.1 µM)	16 (≈ 9.1 µM)	32 (≈ 18.2 µM)	MIC [27]: ≤ 0.06 µg/mL; MIC [5]: ≤ 0.06 µg/mL; MIC [34]: ≤ 0.06 µg/mL; MIC [29]: ≤ 0.06 µg/mL; MIC [30]: 0.125 µg/mL (≈ 0.0711 µM); MIC [31]: ≤ 0.06 µg/mL; MIC [12]: 8 µg/mL (≈ 4.55 µM); MIC [32]: ≤ 0.06 µg/mL; ED50 [15]: 0.27 mg/kg/2
